Each block holds one compound with its values, some of them ahead of it.
Key:
[1] = system: 02.063, LIPC, Foie8b and HN14 cells; assay: Chemosensitivity / PrestoBlue cell viability, four primary pancreatic cancer-derived cells; format: cell-based, human; conditions: 72 h, 0 to 100 μM, FIG. 1
Description: The biological effect in vitro of the compounds A, B and C were then studied on four well characterized primary pancreatic cancer-derived cells 02.063 and LIPC (Basal subtype), Foie8b (derived from a liver metastasis) and HN14 (Classical subtype).
(§1) The cells were screened for chemosensitivity to these compounds for 72 h with increasing concentrations of the compounds ranging from 0 to 100 μM in 96-well plates. Trifluoperazine was used as the reference compound. Each experiment was performed in triplicate and repeated at least three times. Cell viability was estimated after addition of the PrestoBlue cell viability reagent (Life Technologies) for 3 h.

NUPR1 [2] = biological target: T1, NUPR1 (Homo sapiens, UniProt O60356); assay: Isothermal titration calorimetry of NUPR1-compound interaction; conditions: ITC, 25° C, sodium phosphate 20 mM pH 7.0, 1% DMSO, single binding site model; read-out: dissociation constant (Kd)
T1 sequence (O60356 1-82): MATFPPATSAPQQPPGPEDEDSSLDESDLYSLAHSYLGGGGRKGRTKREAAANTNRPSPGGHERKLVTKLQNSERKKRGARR
Description: (c) ITC studies: Target engagement for the different compounds was assessed by isothermal titration calorimetry (the gold standard technique in binding affinity determination), which allowed the thermodynamic characterization of the NUPR1-compound interaction.
Titrations were performed in an AutoiTC200 (MicroCal, Malvern Instruments). A solution of NUPR1 (20 μM, in sodium phosphate 20 mM pH 7.0, 1% DMSO) in the calorimetric cell was titrated with a solution of corresponding compound (200 μM, in sodium phosphate 20 mM pH 7.0, 1% DMSO) located in the injecting syringe.
Because compounds were initially dissolved as concentrated (˜10 mM) stock solutions in pure DMSO, a residual percentage of DMSO was present in the final solutions. […] A standard protocol was employed: 19 titrant injections with 2 μL were programmed with a spacing of 150s, a stirring speed of 750 rpm, and a reference power of 10 μcal/s. From the thermogram (thermal power as a function of time), the binding isotherm (ligand-normalized heats as a function of the molar ratio) was obtained through integration of the individual heat effect associated with each ligand injection. Non-linear least squares regression analysis employing a model considering a single binding site in NUPR1 allowed the estimation of the binding parameters: dissociation constant, biding enthalpy, and stoichiometry.

[3] = system: HEPG2 (Hepatocellular carcinoma); assay: PrestoBlue cell viability, HEPG2; format: cell-based
Description: as §1
(§2) The effect of compound C was also evaluated by treating cellular lines derived from different tumors with increasing concentrations of this compound. The protocol applied is the same as the one mentioned above for cell lines 02-063, HN14, LIPC and Foie8b.

[4] = system: MDA-MB-231 (Breast cancer); assay: PrestoBlue cell viability, MDA-MB-231; format: cell-based; conditions: Homo sapiens, MDA-MB-231, 72 h
Description: as §1, §2

02.063 cells xenograft = assay: Mice xenografted with 02.063 cells, tumor volume; format: in vivo, NMRI-Nude mice
Description: FIG. 2: Variation of the size the tumor of mice xenografted with 02.063 cells in the absence of any treatment (control—administration of a volume of vehicle solution equivalent to the volume of treatment administered to the treated mice) or treated with compound C of the invention (daily treatment of 30 days with 5 mg/kg of this compound). Day 0 on this figure corresponds to the day when the tumors reached 200 mm^3 (so around 1 week after the injection of 15×10^6 cells).
02.063 cells were inoculated subcutaneously (15×10^6 cells) in NMRI-Nude 8-week old mice. When tumors reached 200 mm^3, (around 1 week after the injection), a daily treatment was started for 30 days with 5 mg/kg of the compound C and the control group receiving an equivalent volume of vehicle solution (6 mice in control group, 6 mice treated with compound C).

[5] = Neurological effect on treated mice; format: in vivo
Description: Accordingly, Trifluoperazine seemed an interesting compound as anti-cancer agent. However, as indicated in the examples of the present application, increasingly high doses of Trifluoperazine tested in vivo led to neurological effects on immunodeficient mice implanted with human pancreatic cancer cells-derived xenografts.
A similar experiment was performed with Trifluoperazine (data not shown). […] Although relatively efficient as an anticancer agent, the neurological effect found in mice left Trifluoperazine unusable in clinics.

[6] = system: MiaPaCa-2, ANOR, AOIPC, 02-136, 01-046, NH01, LIPC, HN14, 01-008 and Foie8b cells; assay: Chemosensitivity / PrestoBlue cell viability, ten primary pancreatic cancer-derived cells; format: cell-based; conditions: 72 h, 0 to 100 μM, FIG. 4
Excerpt: The biological effect in vitro of the compounds C, I, F, K, L, M, N, D, G and J were studied on ten well characterized primary pancreatic cancer-derived cells: MiaPaCa-2 (Classical subtype), ANOR (Classical subtype), AOIPC (Basal subtype), 02-136 (Basal subtype), 01-046 (Classical subtype), NH01 (Classical subtype), LIPC (Basal subtype), HN14 (Classical subtype), 01-008 (Basal subtype) and Foie8b (derived from a liver metastasis).
The protocol applies was identical to the one previously indicated, i.e.:
as §1, with “plates.” for “plates. Trifluoperazine was used as the reference compound.”

NUPR1 [7] = biological target: T1, NUPR1; conditions: Neira et al., 2017; cited from earlier work
[8] = 5 mg/kg daily for 30 days, from tumors of 200 mm^3, FIG. 2

Kd (NUPR1 [2]): 11 µM
Compound: CCN1CCN(CCCN2c3ccccc3Sc3ccc(C(F)(F)F)cc32)CC1 [Compound A]
cell death induced / efficiency to kill pancreatic cancer cells, compared with Trifluoperazine [1]: close to that induced by Trifluoperazine

Kd (NUPR1 [2]): 7.1 µM
Compound: CCN1CCN(CCCN2c3ccccc3Sc3ccc(C(F)(F)F)cc32)CC1 [Compound B]

IC50 ([3]; HEPG2, 72 h): 0.254 µM
IC50 ([3]; Homo sapiens, HepG2, 72 h): 0.25 µM
IC50 [4]: 14.1 µM
Kd (NUPR1 [2]): 2.1 µM
Compound: CN(C)CCN1CCN(CCCN2c3ccccc3Sc3ccc(C(F)(F)F)cc32)CC1 [Compound C]
size of the tumors (02.063 cells xenograft; [8]): decreased progressively to almost disappear after 20 days of treatment
tumor growth (02.063 cells xenograft; [8]): stopped the growth almost immediately
cell death induced / efficiency to kill pancreatic cancer cells, compared with Trifluoperazine [1]: most efficient compound to kill the pancreatic cancer cells
efficiency relative to Trifluoperazine (times more efficient) [1]: around 10 times
neurological effect ([5]; treatment of xenografted mice, including chronic treatment with 10 mg/kg): did not show any appreciable neurological effect
induction of cell death in the different cancer cell lines [6]: particularly efficient (low IC50)

Compound: CN1CCN(CCCN2c3ccccc3Sc3ccc(C(F)(F)F)cc32)CC1 [Trifluoperazine, reference compound]
tumor growth (02.063 cells xenograft; higher dose, data not shown): rapidly, and almost completely, stopped
tumor volume increase compared to the control (02.063 cells xenograft; lowest dose, same period, data not shown): 50%
neurological effect ([5]; increasingly high doses, xenografted immunodeficient mice): neurological effect on treated mice such has lethargy
dissociation constant between NUPR1 and Trifluoperazine (NUPR1 [7]): low micromolar range

— US20210137938A1, “NUPR1 INHIBITION FOR TREATING CANCER” (INSTITUT NATIONAL DE SANTE ET DE LA RECHERCHE MEDICALE …, priority 2018, published 2021)
